Test results published in PMC3116189, “Novel Natural Inhibitors of CYP1A2 Identified by in Silico and in Vitro Screening” (International Journal of Molecular Sciences, 2011).
“Also recorded” adds a separate entry of the source.

These compounds were tested against T1, CYP1A2 (Homo sapiens, UniProt P05177) (assay: in vitro). Settings: 1 μM active ingredient, Rh CYP1A2-mediated phenacetin O-deethylation, test dataset of 202 herb ingredients.
T1 sequence (P05177 1-516): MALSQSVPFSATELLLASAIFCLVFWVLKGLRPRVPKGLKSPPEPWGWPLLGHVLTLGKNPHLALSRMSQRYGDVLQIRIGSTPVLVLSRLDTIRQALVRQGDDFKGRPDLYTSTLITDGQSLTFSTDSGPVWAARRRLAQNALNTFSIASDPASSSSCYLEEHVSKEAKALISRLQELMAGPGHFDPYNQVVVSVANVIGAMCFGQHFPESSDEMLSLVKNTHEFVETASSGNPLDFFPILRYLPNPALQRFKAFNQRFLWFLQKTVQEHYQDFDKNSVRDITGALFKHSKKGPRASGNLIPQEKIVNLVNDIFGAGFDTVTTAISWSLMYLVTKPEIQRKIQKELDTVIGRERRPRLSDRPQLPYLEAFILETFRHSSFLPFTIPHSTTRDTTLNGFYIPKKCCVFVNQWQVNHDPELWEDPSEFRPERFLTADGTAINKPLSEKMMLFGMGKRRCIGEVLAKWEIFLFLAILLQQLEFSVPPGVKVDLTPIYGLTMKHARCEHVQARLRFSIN
Type: biochemical
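Further: recombinant CYP1A2 incubated for 1 h at 37 °C, with the reaction started by an NADPH-generating system.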
Description: A total of 18 candidate compounds selected by pharmacophore and docking were examined for their potential to inhibit rhCYP1A2 phenacetin O-deethylation activity at a test concentration of 1 μM.
The basic incubation medium contained 100 mM potassium phosphate buffer (PH 7.4), 50 pmol recombinant human CYP1A2, 25 μM phenacetin and 1 μM active ingredients. The final incubation volume was 200 μL. After 5 min pre-incubation at 37 °C, the reaction was initiated by the addition of NADPH-generating system (5 mM MgCl2, 10 mM glucose 6-phosphates, 1 mM NADPH, and 2.5 U per mL glucose 6-phosphate dehydrogenase). Incubations were performed in a 37 °C shaking water bath for 1 h. Reactions were stopped by adding 0.4 mL of ice-cold acetonitrile containing 0.2 mg/L tinidazole (IS). […] The column was maintained at 35 °C and the injection volume was 10 μL.

Compound | % of Control Indication Activity (Mean)
Astragaloside | > 90%
Echinacoside | > 90%
Ginkgolide B | > 90%
Lobetyolin | > 90%
Pinoresinol diglucoside | > 90%
Rhodiosin | > 90%
Salvianolic acid B | > 90%
Veratramin | > 90%

Same assay, conditions: 1 μM test compound, 25 μM phenacetin, average of duplicate determinations

Compound | % of Control Indication Activity
OC[C@H]1O[C@@H](Oc2cc(O)cc(/C=C/c3ccc(O)cc3)c2)[C@H](O)[C@@H](O)[C@@H]1O [zhang 713, Piceid] | >90%

Same assay, conditions: 1 μM test concentration

Compound | inhibitory activity to CYP1A2 (10% or greater inhibition at 1 μM)
O=c1ccc2ccc(Oc3cc4cc(O)c(O)cc4oc3=O)cc2o1 [zhang 300, Edgeworthin] | found to have inhibition of CYP1A2 activity; also recorded: confirmed to have inhibitory activities to CYP1A2
COc1cc(-c2oc3cc(O)c(OC)c(O)c3c(=O)c2O)ccc1O [zhang 817, Spinacetin] | found to have inhibition of CYP1A2 activity; also recorded: confirmed to have inhibitory activities to CYP1A2

Same assay, conditions: 1 μM test concentration; listed as 284

Compound | inhibitory activity to CYP1A2 (10% or greater inhibition at 1 μM)
COc1cc(C[C@H]2COC(=O)[C@@H]2Cc2ccc(O)c(OC)c2)ccc1O [zhang 284, (−)-Matairesinol] | found to have inhibition of CYP1A2 activity; also recorded: confirmed to have inhibitory activities to CYP1A2

Same assay, conditions: 1 μM test concentration; listed as 616

Compound | inhibitory activity to CYP1A2 (10% or greater inhibition at 1 μM)
COc1cc(C[C@H]2COC(=O)[C@@H]2Cc2ccc(O)c(OC)c2)ccc1O [zhang 616, (+)-Matairesinol] | found to have inhibition of CYP1A2 activity; also recorded: confirmed to have inhibitory activities to CYP1A2

Same assay, conditions: human, recombinant enzyme, pH 7.4

Compound | activity at 1 h, 1 μM
COc1cc(O)c2c(=O)cc(-c3ccc(O)c(O)c3)oc2c1 [zhang 272, 3′-hydroxy-Genkwanin] | < 90%
C[C@@H]1O[C@@H](Oc2c(-c3ccc(O)cc3)oc3cc(O)cc(O)c3c2=O)[C@H](O)[C@H](O)[C@H]1O [zhang 911, Kaempferol-3-O-α-L-rhamnopyranoside] | > 90%

Same assay, conditions: human, recombinant human CYP1A2, pH 7.4, probe phenacetin (25 μM), O-deethylation to acetaminophen; 1 μM test compound, 25 μM phenacetin, average of duplicate determinations; read-out: % of Control Indication Activity

Compound | activity at 1 h, 1 μM
O=c1c(O[C@@H]2OC[C@@H](O)[C@@H](O)[C@@H]2O)c(-c2ccc(O)c(O)c2)oc2cc(O)cc(O)c12 [zhang 205, quercetin-3-O-β-D-arabinopyranoside] | > 90%
O=c1c(OC2OC(CO)C(O)C2O)c(-c2ccc(O)c(O)c2)oc2cc(O)cc(O)c12 [zhang 206, quercetin-3-O-α-D-arabinofuranose] | > 90%
COc1cc(C2Oc3c(ccc4ccc(=O)oc34)O[C@H]2CO)ccc1O (stereo partly shown) [zhang 271, 5′-demethoxy Daphneticin] | > 90%
COc1cc(C[C@H]2COC(=O)[C@@H]2Cc2ccc(O)c(OC)c2)ccc1O [zhang 284, (−)-Matairesinol] | < 90%
O=c1ccc2ccc(Oc3cc4cc(O)c(O)cc4oc3=O)cc2o1 [zhang 300, Edgeworthin] | < 90%
COc1ccc(-c2oc3cc(O)cc(O)c3c(=O)c2OC)cc1OC [zhang 759, 3,3′,4′-Tri-Me ether-3,3′,4′,5,7-Pentahydroxyflavone] | > 90%
COc1cc(-c2oc3cc(O)c(OC)c(O)c3c(=O)c2O)ccc1O [zhang 817, Spinacetin] | < 90%
